Source: patent US7294715B2, “Aporphine and oxoaporphine compounds and pharmaceutical use thereof” (Lotus Pharmaceutical Co., Ltd., priority 2003, dated 2007)
Marks after values point to notes of the source that are not given here.

What was measured:
[1] = system: reperfusion induced arrhythmia in rats; test: Reperfusion induced arrhythmia in rats; assay type: in vivo, rat; details: for Ventricular tachycardia Duration: vehicle 46.6 ± 17.5; for Ventricular tachycardia Incident (%): vehicle 100; for Ventricular fibrillation Duration: vehicle 124.2 ± 25.9
Experimental: Opened-chest SD (Sprague-Dawley) anesthetized rats underwent myocardial ischemia by 5 min-occlusion of the left main coronary artery and followed by 30 min-reperfusion. During the myocardium reperfusion period, heart rate, blood pressure and EKG changes were recorded. Ventricular ectopic activity was evaluated according to the diagnostic criteria advocated by the Lambeth Convention. The incidences and durations of ventricular tachycardia and ventricular fibrillation were determined.

[2] = Hemodynamic effects (blood pressure, heart rate) in rats; assay type: in vivo, rat
[3] = system: regional myocardial ischemia and reperfusion (LAD occlusion); test: Infarct size in a rat model of regional myocardial ischemia and reperfusion; assay type: in vivo; details: iv
Experimental: Seventy two male Wistar rats (215-300 g, Charles River, Margate, U.K.) were anaesthetized with thiopentone sodium (Intraval®, 120 mg/kg i.p.; Rhone-Merrieux, Essex, U.K.). The rats were tracheotomised and ventilated with a Harvard ventilator (70 strokes/min, tidal volume: 8-10 ml/kg, inspiratory oxygen concentration: 30%). Body temperature was maintained at 38±1° C. The right carotid artery was cannulated and connected to a pressure transducer (MLT 844, AD Instruments Ltd, Hastings, UK) to monitor mean arterial blood pressure and heart rate, which were continuously recorded on a data acquisition system (Powerlab® Version 4.0.4, AD Instruments, Hastings, UK) installed on a Dell Dimension 4100 personal computer, throughout the experiment. The right jugular vein was cannulated for the administration of test compound and Evans Blue dye (at the end of the experiment). A parasternal thoracotomy was performed, the heart was suspended in a temporary pericardial cradle and a snare occluder was placed around the left anterior descending coronary artery (LAD). After completion of the surgical procedure the animals were allowed to stabilize for 30 min before LAD ligation. The coronary artery was occluded at time 0 by tightening of the occluder. After 25 min of acute myocardial ischemia, the occluder was released to allow reperfusion for 2 h.
The test compounds were administered as a slow intravenous injection (i.v.) 5 min prior to the onset of reperfusion of the ischemic heart. Following the 2 h reperfusion period, the coronary artery was re-occluded and Evans Blue dye (1 ml of 2% w/v) was injected into the left ventricle, via the right jugular vein cannula, to distinguish between perfused and non-perfused (AAR) sections of the heart. The Evans Blue solution stains the perfused myocardium, while the occluded vascular bed remains uncolored. The animals were sacrificed with an overdose of anesthetic and the heart excised. The heart was sectioned into slices of 3-4 mm thick, the right ventricular wall was removed, and the AAR (pink) was separated from the non-ischemic (blue) area. […]

[4] = system: Langendorff perfused rat hearts; test: Coronary flow in Langendorff perfused rat hearts; details: FIG. 3
Experimental: Adult male Wistar rats weighing 275-325 g, were intraperitoneally anesthetized with sodium pentobarbital (50 mg·kg^−1) and given heparin (300 Ukg·kg^−1) by the same route. Hearts were rapidly excised and immersed in 37° C. perfusion medium. The aorta was cannulated and retrograde-perfused at 80 mmHg with Tyrode's solution containing 120 mM NaCl, 25 mM NaHCO3, 3 mM KCl, 1.2 mM NaH2PO4, 2.5 mM CaCl2, 1.2 mM MgCl2, and […] 5.5 mM glucose. The perfusate was equilibrated with 95% O2, 5% CO2 at 37° C. Perfusion pressure was monitored using a MLT844/D pressure transducer (Capto, Horten, Norway) connected to a PowerLab (ADInstruments, Castle Hill, Australia). The coronary effluent was collected for the measurement of coronary flow.

[5] = iv infusion 0.5 ug/kg, vehicle 80
[6] = iv infusion 5 ug/kg, vehicle 80

SMILES: COc1cc2c(cc1OC)-c1c(OC)c(OC)cc3c1C(C2)N(CCOc1ccccc1OC)CC3 (stereo not shown) [Compound 16, N-[2-(2-methoxyphenoxyl)]ethylnorglaucine]
- Ventricular tachycardia Duration ([1]; iv infusion 0.5 ug/kg): 23.3 ± 4.8 s
- Mortality (%) [1, 5]: 62%
- Ventricular fibrillation Incident (%) [1, 5]: 85%
- Ventricular tachycardia Incident (%) ([1]; iv infusion 0.5 ug/kg): 92%
- Ventricular fibrillation Duration ([1]; iv infusion 0.5 ug/kg): 111.5 ± 24.4 s
- Ventricular tachycardia Duration ([1]; iv infusion 5 ug/kg): 27.9 ± 7.9 s
- Mortality (%) [1, 6]: 46%
- Ventricular fibrillation Incident (%) [1, 6]: 82%
- Ventricular tachycardia Incident (%) ([1]; iv infusion 5 ug/kg): 91%
- Ventricular fibrillation Duration ([1]; iv infusion 5 ug/kg): 72.2 ± 22.9 s
- Ventricular tachycardia Duration ([1]; iv infusion 50 ug/kg): 9.8 ± 8.8 s
- Ventricular fibrillation Incident (%) ([1]; iv infusion 50 ug/kg, vehicle 80): 54%
- Mortality (%) ([1]; iv infusion 50 ug/kg, vehicle 80, p < 0.05 vs vehicle): 23* %
- Ventricular tachycardia Incident (%) ([1]; iv infusion 50 ug/kg): 85%
- Ventricular fibrillation Duration ([1]; iv infusion 50 ug/kg): 42.3 ± 18.6 s
- duration of blood pressure decrease [2]: about 45 minutes
- effects on blood pressure ([2]; 0.5 mg/kg to 50 mg/kg, FIG. 5A): no significant effects
- effects on heart rate ([2]; 0.5 mg/kg to 50 mg/kg, FIG. 5B): no significant effects
- time to recovery of heart rates after drug application ([2]; 50 mg/kg): 45 min
- heart rates after drug ([2]; 50 mg/kg, from 361.5±9.3 bpm, p<0.05): 295.4±16.8 bpm
- heart rates, % of baseline values ([2]; 50 mg/kg, p<0.05): 81.5±2.8 % of baseline values
- mean blood pressure after drug ([2]; at 3 minutes after drug administration, from 74.6±5.7 mmHg): 62.9±2.2 mmHg
- infarct size ([3]; 0.5 mg/kg): 47±4 % of the area at risk
- infarct size ([3]; 1.5 mg/kg): 47±2 % of the area at risk
- coronary blood flow [4]: increasing coronary blood flow
